{"source": "patent US7989420B2", "about": "“Smooth muscle relaxation” (New York Medical College, priority 2006, dated 2011)", "key": {"sGC": {"target": "T1, sGC (Bos taurus, UniProt P16068)", "T1 sequence (P16068 1-619)": "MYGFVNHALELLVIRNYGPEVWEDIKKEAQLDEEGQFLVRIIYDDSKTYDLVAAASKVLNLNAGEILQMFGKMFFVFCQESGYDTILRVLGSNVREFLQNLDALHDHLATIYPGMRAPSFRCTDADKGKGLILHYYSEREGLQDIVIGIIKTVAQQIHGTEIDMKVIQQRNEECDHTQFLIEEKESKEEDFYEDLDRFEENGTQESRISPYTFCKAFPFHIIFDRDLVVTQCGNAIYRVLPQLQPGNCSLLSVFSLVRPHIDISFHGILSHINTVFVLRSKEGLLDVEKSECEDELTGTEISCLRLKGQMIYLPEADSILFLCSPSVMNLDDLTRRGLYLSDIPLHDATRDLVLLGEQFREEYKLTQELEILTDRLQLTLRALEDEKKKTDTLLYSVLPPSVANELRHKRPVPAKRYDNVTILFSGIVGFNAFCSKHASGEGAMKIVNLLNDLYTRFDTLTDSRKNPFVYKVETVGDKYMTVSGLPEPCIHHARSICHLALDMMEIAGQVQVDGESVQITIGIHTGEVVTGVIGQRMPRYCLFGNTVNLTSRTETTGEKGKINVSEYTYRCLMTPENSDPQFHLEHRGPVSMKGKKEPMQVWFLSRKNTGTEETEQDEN", "T1 sequence (P19687 1-691 partner)": "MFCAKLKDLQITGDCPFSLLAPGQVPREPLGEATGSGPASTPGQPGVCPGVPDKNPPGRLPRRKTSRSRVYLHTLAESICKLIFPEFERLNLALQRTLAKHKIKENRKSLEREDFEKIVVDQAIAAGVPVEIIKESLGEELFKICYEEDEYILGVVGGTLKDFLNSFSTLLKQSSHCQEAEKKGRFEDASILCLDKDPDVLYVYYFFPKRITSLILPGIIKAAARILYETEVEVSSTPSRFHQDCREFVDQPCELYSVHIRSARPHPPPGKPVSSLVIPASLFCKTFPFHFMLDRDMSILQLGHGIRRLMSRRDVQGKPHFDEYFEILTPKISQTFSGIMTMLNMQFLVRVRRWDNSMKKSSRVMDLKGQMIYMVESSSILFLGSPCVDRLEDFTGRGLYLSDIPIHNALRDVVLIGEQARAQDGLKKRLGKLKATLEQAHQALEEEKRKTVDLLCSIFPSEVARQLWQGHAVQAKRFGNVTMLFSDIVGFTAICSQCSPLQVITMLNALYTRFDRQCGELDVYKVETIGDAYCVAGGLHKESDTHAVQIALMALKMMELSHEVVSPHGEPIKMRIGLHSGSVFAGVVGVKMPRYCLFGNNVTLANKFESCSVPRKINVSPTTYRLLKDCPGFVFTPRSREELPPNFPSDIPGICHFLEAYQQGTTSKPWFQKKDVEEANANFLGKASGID", "assay": "sGC activity in BPA homogenates (cGMP by ELISA)", "assay_type": "biochemical, bovine", "parameters": "Guanylate cyclase activity of homogenates of BPA was measured by enzyme immunoassay; from tissue; host or cells: BPA (pulmonary artery rings, organ cultured) homogenate", "conditions": "organ culture with 100 μM ALA and/or 100 μM Fe", "protocol": "Guanylate cyclase activity of homogenates of BPA was measured by enzyme immunoassay of the amounts of cGMP generated. Briefly, BPA were pulverized in liquid nitrogen and homogenized in MOPS buffer 1:3 wt to buffer ratio at 5° C. Reaction mixture (0.2 ml final volume) contained 20 mM MOPS-KOH (pH 7.4), 0.1 mM GTP, 2 mM MgCl2, 0.3 mM of the phosphodiesterase inhibitor 3-Isobutyl-1-methylxanthine, a GTP-regenerating system consisting of 10 mM phosphocreatine and 150 U/ml creatine phosphokinase, and 0.1 ml of homogenate (11, 15), and test agents, as indicated. Assays of sGC activity were initiated by the addition of BPA homogenate. Incubations were conducted for 10 min at 37° C., and they were terminated by the addition of 0.1 ml of preheated 12 mM EDTA. This was followed by boiling the assay mixtures for 10 min and a subsequent addition of 5% trichloroacetic acid. The precipitate was removed by centrifugation and the supernatant was washed three times with water-saturated diethyl ether. Residual ether was removed by incubation at 70° C. for 5 minutes, prior to measurement of cGMP by ELISA (Cayman), as described in the manual supplied by manufacturer of the ELISA kit."}, "[1]": {"conditions": "humans, factor which limited the doses of ALA, reference (13); cited from earlier work"}, "[2]": {"test_system": "bovine pulmonary arteries (BPA)", "assay": "Heme content of BPA homogenates (QuantiChrom heme assay)", "assay_type": "cell-based", "conditions": "organ culture with 100 μM ALA and/or 100 μM Fe", "protocol": "Heme was quantified in BPA homogenates using a QuantiChrom heme assay kit purchased from BioAssay Systems, and changes in absorbance were measured in a BIOTEK scanning microplate spectrophotometer. Briefly, segments were homogenized in 20 mM MOPS+sucrose buffer and diluted to approximately 5 mg protein/ml. Homogenates were centrifuged at 2000×g for 5 min, and 50 μl of supernatant obtained were assayed for their heme content based on the manufacture's instructions, employing measurements of changes in absorbance at 400 nm. The protein content of the supernatant was measured with Biorad protein assay kit, and tissue heme levels were reported as nanomoles/mg protein."}, "endothelium-rubbed aorta": {"test_system": "endothelium-rubbed aorta", "assay": "Protoporphyrin IX fluorescence in aorta of rats treated with ALA in vivo", "parameters": "species or system rat", "conditions": "single dose 60 mg/kg ALA i.p., 24 hours after treatment, vs saline-injected rats", "protocol": "The rats were pretreated with 60 mg/kg ALA or with a saline vehicle (i.p.). After 24 hours they were anesthetized with 50 mg/kg sodium pentobarbital and the aorta was removed for in vitro studies. Isolated aortic rings were studied for changes in protoporphyrin IX fluorescence and force under the same conditions similar to those used for bovine pulmonary arteries described above, except that 1 gram of passive force was used."}}, "data": [{"smiles": "NCC(=O)CCC(=O)O", "note": "[ALA, δ-aminolevulinic acid]", "values": [{"measurement": "BPA homogenate sGC activity", "setting": "sGC", "value": "increase in BPA homogenate sGC activity"}, {"measurement": "systemic and pulmonary artery pressure", "setting": "[1]", "value": "reduction in systemic and pulmonary artery pressure"}, {"measurement": "BPA heme levels", "setting": "[2]", "value": "did not reach statistical significance"}, {"measurement": "protoporphyrin IX fluorescence in endothelium-rubbed aorta", "setting": "endothelium-rubbed aorta", "value": "increased in protoporphyrin IX fluorescence"}]}]}
